Test results taken from patent US20240246964A1 (Arbutus Biopharma Corporation, priority 2021, published 2024).

Target: human PD-L1 (Homo sapiens (Human), UniProt Q9NZQ7)
Test: T cell activation luciferase reporter cell culture system (T Cell Activation Assay)
Type: cell-based
Conditions: luciferase reporter assay; PD-L1 aAPC/CHO-K1 cells with PD-1 effector Jurkat T cells

human PD-L1, sequence (Q9NZQ7 19-290): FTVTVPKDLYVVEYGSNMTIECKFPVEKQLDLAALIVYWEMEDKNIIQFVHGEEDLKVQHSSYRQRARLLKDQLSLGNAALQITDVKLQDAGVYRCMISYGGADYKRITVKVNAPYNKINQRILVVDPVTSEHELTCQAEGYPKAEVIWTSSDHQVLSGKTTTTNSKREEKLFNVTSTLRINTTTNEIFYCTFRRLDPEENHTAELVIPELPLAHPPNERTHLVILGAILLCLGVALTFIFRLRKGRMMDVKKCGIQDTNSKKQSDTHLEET

EC50 | Structure (SMILES)
174 nM | COc1nc(-c2cccc(-c3ccnc(-c4cc(OC)c5nc(CN6CC(C)(O)C6)cn5c4)c3Cl)c2Cl)ccc1CN1CC(C)(O)C1 [Example 455, 1-((6-(2-Chloro-3-(3-chloro-2-(2-((3-hydroxy-3-methylazetidin-1-yl)methyl)-8-methoxyimidazo[1,2-a]pyridin-6-yl)pyridin-4-yl)phenyl)-2-methoxypyridin-3-yl)methyl)-3-methylazetidin-3-ol]
291 nM | COc1cc(-c2nccc(-c3cccc(-c4ccc(CNC5CCN(C(=O)C6CCCCC6)CC5)c(OC)n4)c3Cl)c2Cl)ccc1CNC1CCN(C(=O)C2CCCCC2)CC1 [Example 456, (4-(((6-(2-Chloro-3-(3-chloro-2-(4-(((1-(cyclohexanecarbonyl)piperidin-4-yl)amino)methyl)-3-methoxyphenyl)pyridin-4-yl)phenyl)-2-methoxypyridin-3-yl)methyl)amino)piperidin-1-yl)(cyclohexyl)methanone]
≥ 10000 nM | COc1cc(-c2nccc(-c3cccc(-c4ccc(CN5CCNC(=O)C5)c(OC)n4)c3Cl)c2Cl)ccc1CN1CCNC(=O)C1 [Example 457, 4-((6-(2-Chloro-3-(3-chloro-2-(3-methoxy-4-((3-oxopiperazin-1-yl)methyl)phenyl)pyridin-4-yl)phenyl)-2-methoxypyridin-3-yl)methyl)piperazin-2-one]
33 nM | COc1cc(-c2nccc(-c3cccc(-c4ccc(CNC5CCN(C(C)=O)CC5)c(OC)n4)c3Cl)c2Cl)ccc1CN1CCC(O)CC1 [Example 459, 1-(4-(((6-(2-Chloro-3-(3-chloro-2-(4-((4-hydroxypiperidin-1-yl)methyl)-3-methoxyphenyl)pyridin-4-yl)phenyl)-2-methoxypyridin-3-yl)methyl)amino)piperidin-1-yl)ethan-1-one]
96.5 nM | COc1nc(-c2cccc(-c3ccnc(-c4cc5c(=O)n(CCNCC(=O)O)c(OC)nn5c4)c3Cl)c2Cl)ccc1CNC[C@@H]1CCC(=O)N1 [Example 460, (S)-(2-(6-(3-Chloro-4-(2-chloro-3-(6-methoxy-5-((((5-oxopyrrolidin-2-yl)methyl)amino)methyl)pyridin-2-yl)phenyl)pyridin-2-yl)-2-methoxy-4-oxopyrrolo[2,1-f][1,2,4]triazin-3(4H)-yl)ethyl)glycine]
≥ 10000 nM | COc1cc(-c2nccc(-c3cccc(-c4ccc(CN5CCC(NC(C)=O)CC5)c(OC)n4)c3C)c2C)ccc1CN1CCC(NC(C)=O)CC1 [Example 461, N-(1-((6-(3-(2-(4-((4-Acetamidopiperidin-1-yl)methyl)-3-methoxyphenyl)-3-methylpyridin-4-yl)-2-methylphenyl)-2-methoxypyridin-3-yl)methyl)piperidin-4-yl)acetamide]
288 nM | COc1cc(-c2nccc(-c3cccc(-c4ccc(CN[C@H]5CC[C@H](O)CC5)c(OC)n4)c3Cl)c2C)ccc1CN[C@H]1CC[C@H](O)CC1 [Example 463, (1r,4r)-4-(((6-(2-Chloro-3-(2-(4-((((1r,4r)-4-hydroxycyclohexyl)amino)methyl)-3-methoxyphenyl)-3-methylpyridin-4-yl)phenyl)-2-methoxypyridin-3-yl)methyl)amino)cyclohexan-1-ol]
226 nM | COc1cc(-c2nccc(-c3cccc(-c4ccc(CN5CC6(COC6)C5)c(OC)n4)c3Cl)c2C)ccc1CN1CC2(COC2)C1 [Example 464, 6-(4-(4-(3-(5-((2-Oxa-6-azaspiro[3.3]heptan-6-yl)methyl)-6-methoxypyridin-2-yl)-2-chlorophenyl)-3-methylpyridin-2-yl)-2-methoxybenzyl)-2-oxa-6-azaspiro[3.3]heptane]
48.3 nM | COC(=O)N1CCC(NCc2ccc(-c3nccc(-c4cccc(-c5ccc(CNC6CCN(C(=O)OC)CC6)c(OC)n5)c4Cl)c3Cl)cc2OC)CC1 [Example 465, Methyl 4-(((6-(2-chloro-3-(3-chloro-2-(3-methoxy-4-(((1-(methoxycarbonyl)piperidin-4-yl)amino)methyl)phenyl)pyridin-4-yl)phenyl)-2-methoxypyridin-3-yl)methyl)amino)piperidine-1-carboxylate]

Second part, the molecule before the results:

Structure (SMILES) | EC50
COc1cc(-c2nccc(-c3cccc(-c4ccc(CN5CC6(CNC(=O)C6)C5)c(OC)n4)c3Cl)c2C#N)ccc1CN1CC2(CNC(=O)C2)C1 [Example 433, 4-(2-Chloro-3-(6-methoxy-5-((7-oxo-2,6-diazaspiro[3.4]octan-2-yl)methyl)pyridin-2-yl)phenyl)-2-(3-methoxy-4-((7-oxo-2,6-diazaspiro[3.4]octan-2-yl)methyl)phenyl)nicotinonitrile] | 39.9 nM
COc1cc(-c2nccc(-c3cccc(-c4ccc(CNC5CCOCC5)c(OC)n4)c3Cl)c2C#N)ccc1CNC1CCOCC1 [Example 434, 4-(2-Chloro-3-(6-methoxy-5-(((tetrahydro-2H-pyran-4-yl)amino)methyl)pyridin-2-yl)phenyl)-2-(3-methoxy-4-(((tetrahydro-2H-pyran-4-yl)amino)methyl)phenyl)nicotinonitrile] | 37.8 nM
COc1cc(-c2nccc(-c3cccc(-c4ccc(CN5CC[C@H](O)C5)c(OC)n4)c3Cl)c2Cl)ccc1CN1CC[C@H](O)C1 [Example 435, (S)-1-((6-(2-Chloro-3-(3-chloro-2-(4-(((S)-3-hydroxypyrrolidin-1-yl)methyl)-3-methoxyphenyl)pyridin-4-yl)phenyl)-2-methoxypyridin-3-yl)methyl)pyrrolidin-3-ol] | 9.95 nM
COc1cc(-c2nccc(-c3cccc(-c4ccc(CN(C)C5CCOCC5)c(OC)n4)c3Cl)c2Cl)ccc1CNC1CCN(C(C)=O)CC1 [Example 436, 1-(4-((4-(3-chloro-4-(2-chloro-3-(6-methoxy-5-((methyl(tetrahydro-2H-pyran-4-yl)amino)methyl)pyridin-2-yl)phenyl)pyridin-2-yl)-2-methoxybenzyl)amino)piperidin-1-yl)ethan-1-one] | 134 nM
COc1cc(-c2nccc(-c3cccc(-c4ccc(CNC5CCN(CC(F)(F)F)CC5)c(OC)n4)c3Cl)c2Cl)ccc1CNC1CCN(CC(F)(F)F)CC1 [Example 437, N-((6-(2-Chloro-3-(3-chloro-2-(3-methoxy-4-(((1-(2,2,2-trifluoroethyl)piperidin-4-yl)amino)methyl)phenyl)pyridin-4-yl)phenyl)-2-methoxypyridin-3-yl)methyl)-1-(2,2,2-trifluoroethyl)piperidin-4-amine] | 157 nM
COc1cc(-c2nccc(-c3cccc(-c4ccc(CNC5CCN(C(=O)CO)CC5)c(OC)n4)c3Cl)c2Cl)ccc1CNC1CCN(C(=O)CO)CC1 [Example 443, 1-(4-(((6-(2-Chloro-3-(3-chloro-2-(4-(((1-(2-hydroxyacetyl)piperidin-4-yl)amino)methyl)-3-methoxyphenyl)pyridin-4-yl)phenyl)-2-methoxypyridin-3-yl)methyl)amino)piperidin-1-yl)-2-hydroxyethan-1-one] | 10.5 nM
COc1cc(-c2nccc(-c3cccc(-c4ccc(CNC5CCN(c6ccccn6)CC5)c(OC)n4)c3Cl)c2Cl)ccc1CNC1CCN(c2ccccn2)CC1 [Example 444, N-((6-(2-Chloro-3-(3-chloro-2-(3-methoxy-4-(((1-(pyridin-2-yl)piperidin-4-yl)amino)methyl)phenyl)pyridin-4-yl)phenyl)-2-methoxypyridin-3-yl)methyl)-1-(pyridin-2-yl)piperidin-4-amine] | ≥ 10000 nM
COc1cc(-c2nccc(-c3cccc(-c4ccc(CNC5CCN(c6ncccc6Cl)CC5)c(OC)n4)c3Cl)c2Cl)ccc1CNC1CCN(c2ncccc2Cl)CC1 [Example 445, N-((6-(2-Chloro-3-(3-chloro-2-(4-(((1-(3-chloropyridin-2-yl)piperidin-4-yl)amino)methyl)-3-methoxyphenyl)pyridin-4-yl)phenyl)-2-methoxypyridin-3-yl)methyl)-1-(3-chloropyridin-2-yl)piperidin-4-amine] | ≥ 10000 nM
COc1cc(-c2nccc(-c3cccc(-c4ccc(CN5CCC(OC)CC5)c(OC)n4)c3Cl)c2Cl)ccc1CN1CCC(OC)CC1 [Example 447, 3-Chloro-4-(2-chloro-3-(6-methoxy-5-((4-methoxypiperidin-1-yl)methyl)pyridin-2-yl)phenyl)-2-(3-methoxy-4-((4-methoxypiperidin-1-yl)methyl)phenyl)pyridine] | 61.3 nM
COc1cc(-c2nccc(-c3cccc(-c4ccc(CN[C@H]5CC[C@@H](OC)CC5)c(OC)n4)c3Cl)c2Cl)ccc1CN[C@H]1CC[C@@H](OC)CC1 [Example 448, (1s,4s)-N-((6-(2-Chloro-3-(3-chloro-2-(3-methoxy-4-((((1s,4s)-4-methoxycyclohexyl)amino)methyl)phenyl)pyridin-4-yl)phenyl)-2-methoxypyridin-3-yl)methyl)-4-methoxycyclohexan-1-amine] | 76.3 nM
COc1cc(-c2nccc(-c3cccc(-c4ccc(CN5CC6(CNC(=O)C6)C5)c(OC)n4)c3F)c2F)ccc1CN1CC2(CNC(=O)C2)C1 [Example 451, 2-(4-(3-Fluoro-4-(2-fluoro-3-(6-methoxy-5-((7-oxo-2,6-diazaspiro[3.4]octan-2-yl)methyl)pyridin-2-yl)phenyl)pyridin-2-yl)-2-methoxybenzyl)-2,6-diazaspiro[3.4]octan-7-one] | 1970 nM
COc1nc(-c2cccc(-c3ccnc(-c4cc(OC)c5nc(CN[C@H]6CC[C@H](O)CC6)cn5c4)c3Cl)c2Cl)ccc1CN[C@H]1CC[C@H](O)CC1 [Example 453, (1r,4r)-4-(((6-(2-Chloro-3-(3-chloro-2-(2-((((1r,4r)-4-hydroxycyclohexyl)amino)methyl)-8-methoxyimidazo[1,2-a]pyridin-6-yl)pyridin-4-yl)phenyl)-2-methoxypyridin-3-yl)methyl)amino)cyclohexan-1-ol] | 270 nM
COc1nc(-c2cccc(-c3ccnc(-c4cc(OC)c5nc(CN6CC7(CCC(=O)N7)C6)cn5c4)c3Cl)c2Cl)ccc1CN1CC2(CCC(=O)N2)C1 [Example 454, 2-((6-(2-Chloro-3-(3-chloro-2-(8-methoxy-2-((6-oxo-2,5-diazaspiro[3.4]octan-2-yl)methyl)imidazo[1,2-a]pyridin-6-yl)pyridin-4-yl)phenyl)-2-methoxypyridin-3-yl)methyl)-2,5-diazaspiro[3.4]octan-6-one] | 203 nM
